Key:
[1] = test system: ALL line MOLT-4 (CRL1582); test: 3[H]thymidine uptake in leukemic cell line MOLT-4; type: cell-based, human; details: 50 nG/mL
Protocol: For example, the ALL line MOLT-4 (now denoted CRL1582 by the ATCC) was used for testing a representative cytostatic peptide for its effect on leukemic cells. The testing method described by Kikuwa, et al (1986), which is hereby incorporated herein by reference. In brief, the cells were maintained as a suspension in RPMI 1640 (Gibco) and 10% FCS, 100 u. penicillin G/mL and 100 micrograms streptomycin/mL with 2 mM L-glutamine.
Representative non-toxic cytostatic peptides were tested in still other cancer cell lines.

[2] = test system: Malignant melanoma A375 cells; test: 3[H]-thymidine incorporation in A375 cell cultures; type: cell-based
Protocol: Each fraction was reconstituted in 110 μl of Dulbecco's modified Eagle's medium (DMEM) with fetal calf serum (FCS) 5 vol. %, 100 I.U. penicillin, 100 μg streptomycin and 2 nmole glutamine.
Malignant melanoma A375 cells (obtained from the American Type Culture Collection, Rockville, Md.) were counted in a counter (obtained from Coulter Diagnostics, Hialeah, Fla.), and about 4,000 cells were seeded into each well of a 96 well microtiter plate (obtained from Fisher Scientific, Springfield, N.J.) with 200 I.U. penicillin, 200 µg streptomycin and DMEM containing FCS 5 vol. %, 2 nmole glutamine, and […] HEPES (hydroxyethylpiperazine-ethanesulfonic acid buffer) as needed to give a final well volume of […]. […]
The cell cultures were terminated and harvested with a cell harvester (obtained from Flow Laboratories, McLean, Va., under the designation Titertek®), removing the contents of each microtiter plate well onto glass fiber filter paper. […] The strips were placed in scintillation vials and counted in 2 ml scintillation solution (obtained from Fisher Scientific, Springfield, N.J., under the designation Scintiverse®) using a scintillation counter (Model No. LS 100 C. obtained from Beckman Instruments, Somerset, N.J.) to determine the uptake of ^3[H]-thymidine into newly synthesized DNA.

With “serine-glutamine-cysteine-glutamic acid-glutamine-glutamic acid-glycine-glycine-phenalalanine-cysteine-arginine-phenylalanine-leucine-leucine-cysteine-proline-serine-arginine-threonine-serine-aspartic acid-isoleucine-glysine-lysine-leucine-glycine-cysteine-glutamic acid-proline-leucine-tryptophan-lysine-cysteine-cysteine-lysine-arginine-tryptophan-glycine-glycine [peak Q]” the “less 3[H]thymidine uptake than controls” value [1] was 90-95%, the “visual appearance of cells” value [1] was “altered “rounded” visual appearance” and the “less 3[H]-thymidine uptake than controls” value ([2]; HPLC fraction) was “about 50%”. For the same substance, the “amount sufficient to arrest the proliferations of at least about 100,000 melanoma cells” value ([2]; melanoma cells) was “about 50 ng”.
